Experiment: Antagonist activity at P2Y12 receptor in human platelet rich plasma assessed as inhibition of ADP-induced aggregation

SMILES	IC50 [nM]
CCCC(=O)c1cnn(-c2ccc(NC(=O)c3cn(CC(=O)N4CCN(C)CC4)c4ccc(OC)cc34)cc2)c1C	400
CCCC(=O)c1cnn(-c2ccc(NC(=O)c3cn(CC(=O)N4CCN(C)CC4)c4ccc(Cl)cc34)cc2)c1C	500
CCCC(=O)c1cnn(-c2ccc(NC(=O)c3cn(CC(=O)N4CCN(C)CC4)c4cc(F)c(Cl)cc34)cc2)c1C	500
CCCC(=O)c1cnn(-c2ccc(NC(=O)c3cn(CC(=O)N4CCN(C)CC4)c4cc(C)c(Br)cc34)cc2)c1C	1100
CCCC(=O)c1cnn(-c2ccc(NC(=O)c3cn(CC(=O)N4CCN(C)CC4)c4ccc(C(F)(F)F)cc34)cc2)c1C	700
CCCC(=O)c1cnn(-c2ccc(NC(=O)c3cn(CC(=O)N4CCN(C)CC4)c4cc(C)c(Cl)cc34)cc2)c1C	500
CCCC(=O)c1cnn(-c2ccc(N(C)C(=O)c3cn(CC(=O)O)c4ccc(C)cc34)cc2)c1C	> 30000
CCCC(=O)c1cnn(-c2ccc(NC(=O)c3cn(CC(=O)N4CCN(C)CC4)c4ccc(C)cc34)cc2)c1C	500
CCCC(=O)c1cnn(-c2ccc(NC(=O)c3cn(CC(=O)N4CCN(CCOC)CC4)c4ccc(Cl)cc34)cc2)c1C	300
CCCC(=O)c1cnn(-c2ccc(NC(=O)c3cn(CC(=O)N4CCN(Cc5cc(C)on5)CC4)c4ccc(Cl)cc34)cc2)c1C	300
CCCC(=O)c1cnn(-c2ccc(NC(=O)c3cn(CC(=O)N4CCN5CCN(C)C(=O)C5C4)c4ccc(Cl)cc34)cc2)c1C (configuration not stated)	300
CCCC(=O)c1cnn(-c2ccc(NC(=O)c3cn(CC(=O)N4CCN(CCO)CC4)c4ccc(Cl)cc34)cc2)c1C	300
CCCC(=O)c1cnn(-c2ccc(NC(=O)c3cn(CC(=O)N4CCN(CC(=O)N(C)C)CC4)c4ccc(Cl)cc34)cc2)c1C	400
CCCC(=O)c1cnn(-c2ccc(NC(=O)c3cn(CCC(=O)O)c4ccc(C)cc34)cc2)c1C	4000
CCCC(=O)c1cnn(-c2ccc(NC(=O)c3cn(CC(=O)O)c4ccc(C)cc34)cc2)c1C	1800
CCOC(=O)c1c(C)nn(-c2ccc(C(=O)NCc3ccccc3OC)cc2)c1C	16800
CCCC(=O)c1cnn(-c2ccc(NC(=O)c3cn(CC(=O)O)c4ccc(C)c(C)c34)cc2)c1C	> 30000
CCOC(=O)c1c(C)nn(-c2ccc(NC(=O)Nc3ccc(Cl)cc3)cc2)c1C	4500
CCCC(=O)c1cnn(-c2ccc(NC(=O)c3cn(CC(=O)O)c4cc(C)c(C)cc34)cc2)c1C	400
CCCC(=O)c1cnn(-c2ccc(NC(=O)c3c(C)n(CC(=O)O)c4ccc(C)cc34)cc2)c1C	15000
CCCC(=O)c1cnn(-c2ccc(NC(=O)n3cc(CCCC(=O)O)c4ccc(C)cc43)cc2)c1C	> 30000
CCCC(=O)c1cnn(-c2ccc(NC(=O)c3cn(CC(=O)N4CCN(C)CC4)c4cc(C)c(C)cc34)cc2)c1C	500
CCCC(=O)c1cnn(-c2ccc(NC(=O)c3cn(CCCC(=O)O)c4ccc(C)cc34)cc2)c1C	20000
CCOC(=O)c1c(C)nn(-c2ccc(NC(=O)Nc3ccccc3OCCCC(=O)O)cc2)c1C	13000
CCCC(=O)c1cnn(-c2ccc(NC(=O)c3cn(CC(=O)OC)c4ccc(C)cc34)cc2)c1C	4100
CCCC(=O)c1cnn(-c2ccc(NC(=O)Nc3cc(C)ccc3OCCCC(=O)O)cc2)c1C	> 30000
CCCC(=O)c1cnn(-c2ccc(NC(=O)c3cn(CC(=O)N(C)C)c4cc(C)c(C)cc34)cc2)c1C	800
